Counter-ions that a name gives are not always drawn. Like-named read-outs stand apart in the source and are kept apart here.
What was measured:
Format in all cases: biochemical
acetyl cholinesterase = acetyl cholinesterase (Homo sapiens, UniProt P22303)
butyryl cholinesterase = butyryl cholinesterase (Homo sapiens, UniProt P06276)
[1] = molecular target: T1, human serum containing naturally occurring pseudocholinesterases (Homo sapiens, UniProt P06276)
T1 construct: human serum containing naturally occurring pseudocholinesterases; from tissue; host or cells: human serum (Serum A, Serum B)
T1 sequence (P06276 29-602): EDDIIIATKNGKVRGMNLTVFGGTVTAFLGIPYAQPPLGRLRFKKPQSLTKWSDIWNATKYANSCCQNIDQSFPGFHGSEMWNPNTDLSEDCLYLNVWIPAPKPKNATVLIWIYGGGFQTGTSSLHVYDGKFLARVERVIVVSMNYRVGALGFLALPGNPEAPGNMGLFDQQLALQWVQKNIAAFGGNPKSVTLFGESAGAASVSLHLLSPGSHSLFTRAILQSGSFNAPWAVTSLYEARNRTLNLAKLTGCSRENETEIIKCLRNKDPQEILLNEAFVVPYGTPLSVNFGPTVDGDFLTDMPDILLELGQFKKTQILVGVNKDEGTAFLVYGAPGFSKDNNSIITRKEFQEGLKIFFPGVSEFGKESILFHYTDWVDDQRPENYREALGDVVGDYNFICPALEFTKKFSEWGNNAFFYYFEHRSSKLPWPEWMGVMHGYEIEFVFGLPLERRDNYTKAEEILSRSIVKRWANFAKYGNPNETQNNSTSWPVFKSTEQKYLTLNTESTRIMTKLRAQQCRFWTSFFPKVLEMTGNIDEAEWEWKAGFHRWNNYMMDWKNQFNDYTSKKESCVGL

[2] = Reagent without lipase and without eserine salt, used to assay cholinesterase solutions (Example 4); details: 1.17 units of acetyl cholinesterase or 0.36 units of butyryl cholinesterase; no lipase and no eserine salt
Procedure: The four-reagent kit of Example 1 is utilized as follows, using duplicate specimen vials labelled "Patient-Blank", "Patient", "Blank 10 Minutes" and "Blank 30 Minutes", and the following procedure.
The activity of serum lipase is proportional to the absorbance at 412 nanometers, and is calculated as follows:
Lipase activity per 20 minutes= Absorbance [patient vial-Blank vial] (30 minutes) -Absorbance [patient vial-Blank vial] (10 minutes)
A reagent composition is formulated to contain the following: […]
Final pH about 8.8. Using a procedure similar to that of Example 2, the reagent was used to assay solutions containing 1.17 units of acetyl cholinesterase (a true cholinesterase) or 0.36 units of butyryl cholinesterase (a pseudocholinesterase). Acetyl cholinesterase produced an absorbance change of 0.011 absorbance units and butyryl cholinesterase produced a change of 0.421 absorbance units.

lipase = assay: Effect on lipase under the test conditions
pseudocholinesterase = molecular target: T2, pseudocholinesterase (Homo sapiens, UniProt P06276); assay: Eserine salicylate added to fresh human serum specimens, absorbance change between 10 and 30 minutes incubation (Example 4); details: for Absorbance change: 10 to 30 minutes incubation
T2 construct: hydrolysis of S-acyl substrate (BALB) with chromogenic sulfhydryl reagent
T2 sequence (P06276 29-602): as above

Chain of butyryl cholinesterase (P06276 29-602): as above
Chain of acetyl cholinesterase (P22303 32-614): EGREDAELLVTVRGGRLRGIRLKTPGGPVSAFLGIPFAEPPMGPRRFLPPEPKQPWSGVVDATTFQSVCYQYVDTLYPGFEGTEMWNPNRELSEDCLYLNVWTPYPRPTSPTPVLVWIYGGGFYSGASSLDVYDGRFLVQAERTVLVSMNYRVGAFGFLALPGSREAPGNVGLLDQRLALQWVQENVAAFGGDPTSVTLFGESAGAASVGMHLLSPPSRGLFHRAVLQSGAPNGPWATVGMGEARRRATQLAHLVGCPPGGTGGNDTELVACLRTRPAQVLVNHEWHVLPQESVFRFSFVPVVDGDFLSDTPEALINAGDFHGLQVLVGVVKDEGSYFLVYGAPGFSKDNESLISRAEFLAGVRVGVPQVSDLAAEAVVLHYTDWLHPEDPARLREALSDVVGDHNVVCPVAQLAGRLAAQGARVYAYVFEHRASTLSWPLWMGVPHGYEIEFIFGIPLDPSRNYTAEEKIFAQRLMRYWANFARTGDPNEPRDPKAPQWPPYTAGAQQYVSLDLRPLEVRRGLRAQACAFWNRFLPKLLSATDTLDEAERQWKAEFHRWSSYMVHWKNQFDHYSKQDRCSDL

## CN(C)C(=O)Oc1cccc([N+](C)(C)C)c1 [Neostigmine Methyl Sulfate, neostigmine methylsulfate]
Acetyl cholinesterase
  Activity, Acetyl Cholinesterase: 0.025 ΔAbsorbance per 20 minutes incubation
Butyryl cholinesterase
  Activity, Butyryl Cholinesterase: 0.187 ΔAbsorbance per 20 minutes incubation
  inhibition of BALB hydrolysis by pseudocholinesterase (in words): significant inhibition
[1]
  Activity, Serum A: 0.098 ΔAbsorbance per 20 minutes incubation
  Activity, Serum B: 0.081 ΔAbsorbance per 20 minutes incubation

## Acetyl cholinesterase
[2]
  Absorbance change: 0.011 absorbance units

## CNC(=O)Oc1ccc2c(c1)[C@]1(C)CCN(C)[C@@H]1N2C [Eserine Salicylate, Eserine salicylate]
Acetyl cholinesterase
  Activity, Acetyl Cholinesterase: 0.027 ΔAbsorbance per 20 minutes incubation
lipase
  inhibition of lipase: does not inhibit lipase
pseudocholinesterase
  specificity for serum pseudocholinesterase: highly specific for serum pseudocholinesterase
pseudocholinesterase; concentrations increasing from 0.02 to 0.05 millimolar
  improvement with increasing inhibitor concentration: little or no improvement
pseudocholinesterase; fresh human serum, Example 4
  inhibition of pseudocholinesterase (in words): inhibition of pseudocholinesterase
pseudocholinesterase; fresh human serum, 5 microliters (0.005 millimolar) of 1 millimolar eserine salicylate added
  Absorbance change: 0.501
pseudocholinesterase; fresh human serum, 10 microliters of 1 millimolar eserine salicylate added
  Absorbance change: 0.495
pseudocholinesterase; fresh human serum, 20 microliters of 1 millimolar eserine salicylate added
  Absorbance change: 0.475
pseudocholinesterase; fresh human serum, 30 microliters of 1 millimolar eserine salicylate added
  Absorbance change: 0.490
pseudocholinesterase; fresh human serum, 40 microliters of 1 millimolar eserine salicylate added
  Absorbance change: 0.496
pseudocholinesterase; fresh human serum, 50 microliters of 1 millimolar eserine salicylate added
  Absorbance change: 0.492
Butyryl cholinesterase
  Activity, Butyryl Cholinesterase: 0.182 ΔAbsorbance per 20 minutes incubation
  inhibition of BALB hydrolysis by pseudocholinesterase (in words): significant inhibition
[1]
  Activity, Serum A: 0.078 ΔAbsorbance per 20 minutes incubation
  Activity, Serum B: 0.092 ΔAbsorbance per 20 minutes incubation

## O=S(=O)(F)Cc1ccccc1 [PMSF, phenyl methyl sulfonyl fluoride]
Acetyl cholinesterase; 50 microliters of acetyl cholinesterase, 10.4 units per ml, Neostigmine Methyl Sulfate 0.037 mM, PMSF 0.37 mM
  Activity, Acetyl Cholinesterase: 0.021 ΔAbsorbance per 20 minutes incubation
Butyryl cholinesterase; 50 microliters of butyryl cholinesterase, 7.2 units per ml, Eserine Salicylate 0.037 μm, Neostigmine Methyl Sulfate 0.037 mM, PMSF 0.37 mM
  Activity, Butyryl Cholinesterase: 0.338 ΔAbsorbance per 20 minutes incubation
[1]; 50 microliters of human Serum A, Eserine Salicylate 0.037 μm, Neostigmine Methyl Sulfate 0.037 mM, PMSF 0.37 mM
  Activity, Serum A: 0.487 ΔAbsorbance per 20 minutes incubation
[1]; 50 microliters of human Serum B, Eserine Salicylate 0.037 μm, Neostigmine Methyl Sulfate 0.037 mM, PMSF 0.37 mM
  Activity, Serum B: 0.383 ΔAbsorbance per 20 minutes incubation
[1]; serum samples, without pseudocholinesterase inhibitor
  effect in inhibiting the interfering hydrolysis of the S-acyl compound (in words): little or no effect

Source: patent publication US4279994A (priority 1979, dated 1981)
